This is an account of results in patent US20140255330A1, “Mixed Sugar Compositions” (THE PROCTER & GAMBLE COMPANY, priority 2013, published 2014).

Series [1] in a line: Thermal transition determination via DSC, -40° C. program (procedure of Example 30). The class given is physicochemical. The settings on record: for T Intercept-2 / T Peak Max-2: peak 2. The procedure:
(§1) A Tzero Hermetic pan & lid was charged with ˜10-15 mg mixed material sample described in Examples 22. A Direct Scanning Coulometer, DSC Q2000 V24.9 was used to determine thermal transitions. The following temperature profile was used to obtain the data: ambient temperature cooled to −40° C. at 20° C./min, −40° C. to 160° C. at 20° C./min. The T intercept is defined as the temperature where the extrapolated slope of the initial curve of a peak intercepts the interpolated baseline of that peak. T Peak Max is defined as the temperature at the peak (inflection point) of a given curve.
Temperature program: Ambient temperature to −40° C. at 20° C./min, −40° C. to 140° C. at 20° C./min.
(§2) The procedure of Example 30 was followed using the mixed C12-ene-NMG:C12-ene-NMX samples described in Example 24.
The procedure of Example 30 was followed using the mixed C15-ene-NMG:C15-ene-NMX samples described in Example 25. […]
The procedure of Example 30 was followed using the mixed NMHG:NMHX samples described in Example 46.
A general note: DSC measures the heat that a sample takes up or gives off during a temperature scan.

The nature of series [2]: Visual melting point determination (capillary melting point apparatus). Type of series: physicochemical. The settings on record: for Ending MP: transparent gel to liquid. From the text: A Kimax −51 capillary tube (size 1.5−1.8×90 mm) was charged with the mixed C12-NMG:C12-NMX samples described in Example 22 to afford ˜½ inch sample bed. A Tomas Hoover Capillary Melting Point Apparatus was used to determine melting points visually. The Starting Melting Point (MP) is defined as the temperature (° C.) when the initial white opaque solid has completed the transition to a transparent gel. The Ending Melting Point (MP) is defined as the temperature (° C.) when the transparent gel transitions to liquid.
The procedure of Example 27 was followed using the mixed C12-NMG:C12-NMGly samples described in Example 23.

Series [3] in a line: Thermal transition determination via DSC, -20° C. to 160° C. at 20° C./min. The class given is physicochemical. The settings on record: C12-NMG:C12-NMX; for T Intercept / T Peak Max: peak 1; for T Intercept-3 / T Peak Max-3: peak 3. How it is done: as §1, with “transitions. A DSC is able to detect phase transitions within a material that might not be visible to the naked eye.” for “transitions.”, “−20°” for “−40°”
Temperature program: Ambient temperature to −20° C. at 20° C./min, −20° C. to 160° C. at 20° C./min.

The conditions of series [4]: literature values; cited from earlier work.
A short description of series [5]: Krafft Point analysis, Phase Technology NK60-KPA Analyzer (Diffusive Light Scattering). Type of series: physicochemical. The settings on record: 1 wt % solutions of C12-NMG and C12-NMX in deionized water mixed by volume.
Description: Krafft Point analysis was performed on a Phase Technology® NK60-KPA Analyzer that used a Diffusive Light Scattering (DLS) detection method. A 1 wt % solution was prepared in deionized water and 0.150 ml of this solution was added to the sample cell of the instrument at room temperature (20-25° C.). The following heating and cooling cycle was executed on the sample. Samples were warmed to 40° C. at a ramp rate of 5° C./min and held for 30 seconds. Next, Samples were cooled to −20° C. at a rate of −10° C./min and held for 60 seconds. Samples were then warmed to 0° C. at a rate of 5° C./min, held for 0 seconds, warmed to 30° C. at a rate of 2° C./min, held for 0 seconds and lastly warmed to 40° C. at a rate of 5° C./min.
Data was recorded as crystal count (y-axis) versus temperature (x-axis). […] During final warming cycle, when crystal count returned to original baseline, the temperature at that point was recorded as the Krafft point.
(§3) 1 wt % solutions of each of the materials in the table below were tested. […] A volume of 0.150 mL of this mixture was then analyzed via the Phase Technology® NK60-KPA Analyzer.
as §3
Series [6] can be described thus: Physical consistency of samples noted at ambient temperature. The class given is physicochemical. The settings on record: when placed into DSC pan.
Description: as §2
The procedure of Example 30 was followed using the mixed C15-ene-NMG:C15-ene-NMX samples described in Example 25.
The procedure of Example 30 was followed using the mixed CCO-NMG:CCO-NMX samples described in Example 37.

Setting [7] is: C12-NMG:C12-NMGly blends by weight.
Setting [8] is: C12-NMG:C12-NMX blends by weight.
Setting [9] is: C12-NMG:C12-NMX blends by weight, white opaque solid to transparent gel.
[10] abbreviates: C12-ene-NMG:C12-ene-NMX, peak 1, ** = No peak was observed.
Setting [11] is: C15-ene-NMG:C15-ene-NMX, peak 1, ** = No peak was observed.

Regarding `CCCCCCN(C)C[C@H](O)[C@@H](O)[C@H](O)CO` [NMHX, N-Methyl Hexyl Xylamine], in series [1] (NMHG:NMHX blends by weight), the “T Intercept” value amounted to 48.6 °C and the “T Peak Max” value amounted to 52.3 °C.
For the compound `CCCCCCCCCCCC(=O)N(C)C[C@H](O)[C@@H](O)[C@H](O)[C@H](O)CO` [Example C12-NMG, N-Dodecanoyl-N-Methylglucamine], in series [1] (C12-NMG:C12-NMGly, peak 1), the “T Intercept” value worked out at 82.0 °C and the “T Peak Max” value is 94.7 °C. Besides, in series [1] (C12-NMG:C12-NMGly), the “T Intercept-2” value worked out at 137.0 °C. Further, in series [2] (setting [7]), the “Ending PM” value stood at 127.2 °C and the “Starting MP” value came to 96.8 °C. The “Ending MP” value in series [2] (setting [8]) is 129.8 °C. Also, the “Starting MP” value in series [2] (setting [9]) is 96 °C. In addition, in series [3], the “T Intercept” value was found to be 84.1 °C, the “T Peak Max” value was 94.7 °C, the “T Intercept-3” value amounted to 136.7 °C and the “T Peak Max-3” value amounted to 137.9 °C. For the same compound, in series [4], the “initial melting point (Zhu et al)” value is 90.5-91.5 °C.
On to `CCCCCCCCCCCC(=O)N(C)CC(O)C(O)C(O)CO` (centres unmarked) [Example C12-NMX, N-Dodecanoyl-N-Methylxylamine], for which the “Ending MP” value in series [2] (setting [8]) worked out at 96.6 °C. Besides, in series [2] (setting [9]), the “Starting MP” value was determined as 76 °C. Further, in series [3], the “T Intercept” value turned out to be 69.7 °C, the “T Peak Max” value was determined as 77.0 °C, the “T Intercept-3” value came to 95.6 °C and the “T Peak Max-3” value was 97.2 °C. Besides, the “initial melting point (Zhu et al)” value in series [4] was 74-75 °C.
On to N-Methylglucamine [Example 1], for which, in series [5], the “Krafft Point” value was 20 °C.
For `CCC=CCCCCCCCC(=O)N(C)C[C@H](O)[C@@H](O)[C@H](O)[C@H](O)CO` [Example C12-ene-NMG, N-(9-Dodecenoyl)-N-Methylglucamine], the “physical consistency of sample” value in series [6] was “powders”. Moreover, in series [1] (setting [10]), the “T Intercept” value was determined as 67.0 °C and the “T Peak Max” value came out at 78.7 °C. For the same compound, in series [1] (C12-ene-NMG:C12-ene-NMX), the “T Intercept-2” value was 106.1 °C and the “T Peak Max-2” value amounted to 108.5 °C.
For N-Methyl Hexyl Glucamine [NMHG], in series [1] (NMHG:NMHX blends by weight), the “T Intercept” value was 73.8 °C and the “T Peak Max” value was determined as 79.0 °C.
With `CCCCCC=CCCCCCCCC(=O)N(C)C[C@H](O)[C@@H](O)[C@H](O)[C@H](O)CO` [Example C15-ene-NMG, N-(9-Pentadecenoyl)-N-Methylglucamine], in series [1] (setting [11]), the “T Intercept” value is 64.1 °C and the “T Peak Max” value stood at 77.9 °C. In series [1] (C15-ene-NMG:C15-ene-NMX), the “T Intercept-2” value was found to be 144.6 °C and the “T Peak Max-2” value worked out at 146.2 °C.
In the case of `CCCCCCCCCCCC(=O)N(C)C[C@H](O)[C@@H](O)[C@H](O)[C@H](O)CO` [Solution 13, N-Dodecanoyl-N-Methylglucamine], the “Krafft Point” value in series [5] is 37 °C.
As to `CCCCCCCCCCCC(=O)N(C)CC(O)CO` (centres unmarked) [Example C12-NMGly, N-Dodecanoyl-(3-methylamino-1,2-propanediol)], in series [1] (C12-NMG:C12-NMGly, peak 1), the “T Intercept” value was determined as 44.5 °C and the “T Peak Max” value was found to be 49.6 °C. Further, in series [1] (C12-NMG:C12-NMGly), the “T Intercept-2” value was 117.2 °C. Further, in series [2] (setting [7]), the “Ending PM” value was 52.8 °C and the “Starting MP” value stood at 46.3 °C. Further, the “initial melting point (Zhu et al)” value in series [4] is 40-40.5 °C.
For the compound `CCCCCC=CCCCCCCCC(=O)N(C)CC(O)C(O)C(O)CO` (centres unmarked) [Example C15-ene-NMX, N-(9-Pentadecenoyl)-N-Methyl-Xylamine], the “physical consistency of sample” value in series [6] is listed as “waxy in nature”. Also, in series [1] (setting [11]), the “T Intercept” value was found to be 27.5 °C and the “T Peak Max” value is 38.8 °C. In addition, in series [1] (C15-ene-NMG:C15-ene-NMX), the “T Intercept-2” value is 113.0 °C and the “T Peak Max-2” value was determined as 115.5 °C.
`CCC=CCCCCCCCC(=O)N(C)CC(O)C(O)C(O)CO` (centres unmarked) [Example C12-ene-NMX, N-(9-Dodecenoyl)-N-Methylxylamine]: the “physical consistency of sample” value in series [6] is recorded as “waxy in nature”. Besides, in series [1] (setting [10]), the “T Intercept” value came out at 26.0 °C and the “T Peak Max” value stood at 28.6 °C. Moreover, in series [1] (C12-ene-NMG:C12-ene-NMX), the “T Intercept-2” value was 86.2 °C and the “T Peak Max-2” value is 89.5 °C.
